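Step 1: Grow cells in 96-well plates. Step 2: Expose to compound for 48 hours at 5 concentrations. Step 3: Interpolate endpoints linearly; if unreached, use highest concentration. Here, GI50 denotes the concentration required for 50% inhibition of growth.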 Activity calls are given as the source filed them. No stated cut-off is given here; in the data, active = GI50 up to about 1.1 µM and inactive = higher.
Legend:
Test in all cases: NCI anticancer screen, dose series, 48 h
UACC-62 = test system: UACC-62
COLO 205 = test system: COLO 205
HT-29 = test system: HT-29
HL-60 = test system: HL-60
RPMI-8226 = test system: RPMI-8226
SF-268 = test system: SF-268
M14 = test system: M14
MCF7 = test system: MCF7
MDA-MB-435 = test system: MDA-MB-435
786-0 = test system: 786-0
SK-MEL-2 = test system: SK-MEL-2
TK-10 = test system: TK-10
UO-31 = test system: UO-31
IGROV-1 = test system: IGROV-1
A498 = test system: A498
SNB-19 = test system: SNB-19
NCI-H522 = test system: NCI-H522
OVCAR-4 = test system: OVCAR-4
SK-MEL-5 = test system: SK-MEL-5
CCRF-CEM = test system: CCRF-CEM

SMILES | GI50 (UACC-62) | GI50 (COLO 205) | GI50 (HT-29) | GI50 (HL-60) | GI50 (RPMI-8226) | GI50 (SF-268) | GI50 (M14) | GI50 (MCF7) | GI50 (MDA-MB-435) | GI50 (786-0) | GI50 (SK-MEL-2) | GI50 (TK-10) | GI50 (UO-31) | GI50 (IGROV-1) | GI50 (A498) | GI50 (SNB-19) | GI50 (NCI-H522) | GI50 (OVCAR-4) | GI50 (SK-MEL-5) | GI50 (CCRF-CEM)
CCCCSC1=N/C(=C\c2ccccc2O)C(=O)N1 | 44.3 µM (inactive) | > 100 µM (inactive) | 70.6 µM (inactive) | 94.6 µM (inactive) | 75.5 µM (inactive) | > 100 µM (inactive) | 71.6 µM (inactive) | 33.5 µM (inactive) | > 100 µM (inactive) | 69.7 µM (inactive) | 57.8 µM (inactive) | 76.9 µM (inactive) | 21.6 µM (inactive) | > 100 µM (inactive) | 28.2 µM (inactive) | 77.8 µM (inactive) | 69 µM (inactive) | 66.1 µM (inactive) |  | 
CCOC(=O)c1cnc2[nH]ccn2c1=O | > 10 µM (inactive) | > 10 µM (inactive) | > 10 µM (inactive) | > 10 µM (inactive) | > 10 µM (inactive) | > 10 µM (inactive) | > 10 µM (inactive) | > 10 µM (inactive) | > 10 µM (inactive) | > 10 µM (inactive) | > 10 µM (inactive) | > 10 µM (inactive) | > 10 µM (inactive) | > 10 µM (inactive) | 5.48 µM (inactive) | > 10 µM (inactive) |  | > 10 µM (inactive) | > 10 µM (inactive) | > 10 µM (inactive)
O=C(Cc1ccc2ccccc2c1)NCc1ccc(C(=O)NCCc2ccccc2)cc1 | > 100 µM (inactive) | > 100 µM (inactive) | 94.4 µM (inactive) |  | > 100 µM (inactive) | > 100 µM (inactive) | > 100 µM (inactive) | > 100 µM (inactive) | > 100 µM (inactive) | > 100 µM (inactive) | > 100 µM (inactive) | > 100 µM (inactive) | > 100 µM (inactive) | > 100 µM (inactive) | > 100 µM (inactive) | > 100 µM (inactive) | > 100 µM (inactive) | > 100 µM (inactive) | > 100 µM (inactive) | 20.3 µM (inactive)
Cn1nc2ccc([N+](=O)[O-])cc2[n+]1[O-] | > 100 µM (inactive) | > 100 µM (inactive) | > 100 µM (inactive) |  |  |  | > 100 µM (inactive) | > 100 µM (inactive) | > 100 µM (inactive) | > 100 µM (inactive) | > 100 µM (inactive) | > 100 µM (inactive) | > 100 µM (inactive) | > 100 µM (inactive) | 87.9 µM (inactive) | > 100 µM (inactive) | > 100 µM (inactive) | > 100 µM (inactive) | > 100 µM (inactive) | > 100 µM (inactive)
CN(Cc1cnc2nc(N)nc(N)c2n1)c1ccc(C(=O)NC(CCS(=O)(=O)O)C(=O)O)cc1 (stereo not given) | 0.508 µM (active) | > 72.3 µM (inactive) | 4.02 µM (inactive) | < 0.0336 µM (active) |  | 0.465 µM (active) | 0.682 µM (active) | 0.268 µM (active) | 0.426 µM (active) | 0.132 µM (active) | > 100 µM (inactive) | > 100 µM (inactive) | 2.72 µM (inactive) | 0.553 µM (active) | > 100 µM (inactive) | 7.16 µM (inactive) | 0.527 µM (active) | > 100 µM (inactive) | 1.79 µM (inactive) | 0.0312 µM (active)
CC(=O)Oc1ccc(/C=C/C(=O)OCCCOC(=O)/C=C/c2ccc(OC(C)=O)c(OC(C)=O)c2)cc1OC(C)=O | > 100 µM (inactive) | > 100 µM (inactive) | > 100 µM (inactive) | < 0.01 µM (active) | > 100 µM (inactive) | > 100 µM (inactive) | > 100 µM (inactive) | > 100 µM (inactive) | > 100 µM (inactive) | 93.1 µM (inactive) | > 100 µM (inactive) | > 100 µM (inactive) | > 100 µM (inactive) | > 100 µM (inactive) | > 100 µM (inactive) | > 100 µM (inactive) | > 100 µM (inactive) | > 100 µM (inactive) | > 100 µM (inactive) | 
CCC1(O)C(=O)OCc2c1cc1n(c2=O)Cc2cc3ccc(C=O)cc3nc2-1 (stereo not given) | 0.566 µM (active) | 9.08 µM (inactive) | 4.9 µM (inactive) | 1.36 µM (inactive) | 2.79 µM (inactive) | 0.321 µM (active) | 1.12 µM (active) | 0.335 µM (active) | 7.18 µM (inactive) | 0.608 µM (active) | 13.4 µM (inactive) | 54.3 µM (inactive) | 1.83 µM (inactive) | 8.09 µM (inactive) | 4.06 µM (inactive) | 2.04 µM (inactive) |  | 3.33 µM (inactive) | 1.83 µM (inactive) | 0.0431 µM (active)

— ChEMBL document CHEMBL1201862, “PubChem BioAssay data set” (2004)
